Reference: US11753433B2, “Methods of synthesizing substituted purine compounds” (Epizyme, Inc., priority 2013, dated 2023)

Experiments:
Format in all cases: physicochemical
[1] = Equilibrium solubility in organic solvents; conditions: RT; for solubility at 24 h: organic solvent or mixture, thermodynamic from solid
Procedure: Approximately 10 mg of Form B was weighed into a 1-ml glass vial followed by addition of 0.5 ml relevant media. Each sample was continuously stirred using a magnetic stir bar at 25° C. for 24 h. The suspension was then filtered using a nylon membrane with a pore diameter of 0.22 μm. The filtrates were diluted for HPLC analysis and final pH was measured. The solid residue of each sample was collected for XRPD analysis. The solubility of Form B was also determined in commonly used organic solvents (diluents or HPLC mobile phase). The solubility data summarized in Table 10 indicates Form B is quite soluble in MeOH, EtOH, and IPA.

[2] = Slurry experiments using Form B and Form C (relative stability); conditions: RT
Procedure: The relative stability between Form B and Form C was investigated as a function of water activity at room temperature using ACN/H2O. In general, about 10-30 mg Form B was added to a 5-ml glass vial with 0.5 ml corresponding solvents to get suspensions at room temperature. Then 10-30 mg Form C was added to the suspensions which were kept stirring for 24 h. The water activity was calculated using the UNIFAC model.

Solution photostability = experiment: Solution photostability
Procedure: Solution Photostability: Weighed ˜1 mg of Form B and dissolved in 3 solutions at different pHs (0.01 N HCl, 0.01 N NaOH and water). Methanol was added as a co-solvent to dissolve Form B in solutions (i.e., 10% (v/v) methanol in 0.01 N HCl, 20% (v/v) in water and 30% (v/v) in 0.01 N NaOH), the final concentration was 0.1 mg/mL. For each solution, 1 sample and 1 control covered in foil were put into the photo chamber for Vis study (2 vials total for each solution). Measure the concentration and monitor the degradation.

[3] = Equilibrium solubility in aqueous media; conditions: for solubility at 24 h: 25 °C, thermodynamic from solid; for Remaining Solid: XRPD
Procedure: Approximately 10 mg of Form B was weighed into a 1-ml glass vial followed by addition of 0.5 ml relevant media. Each sample was continuously stirred using a magnetic stir bar at 25° C. for 24 h. The suspension was then filtered using a nylon membrane with a pore diameter of 0.22 μm. The filtrates were diluted for HPLC analysis and final pH was measured. The solid residue of each sample was collected for XRPD analysis.
The solubilities of Form B in water and five different pH values at 25° C. were determined by HPLC after 24 h equilibration. Solubility data for Form B was obtained across the physiological pH by using buffer solutions from pH 2 to pH 10.
Preparation of pH Buffers • pH 2: 0.01N HCl solution. Dilute 1 ml of 1 N HCl with H2O up to a total volume of 100 ml. Measure the pH and precisely adjust to pH=2.00 using a few microliters of 1N HCl or 1N NaOH. • pH 4: 50 mM Na citrate buffer. Prepare a 50 mM citric acid solution by diluting 10 ml of 1N citric acid with H2O up to a total volume of 200 ml. Slowly add solid NaOH under stirring to increase the pH to 3.8-4.0 and use a few microliters of 1N NaOH for final adjustment to pH 4.00. • pH 6: 50 mM Na citrate buffer. Use the same procedure as the pH 4 buffer and adjust to pH=6.00 • pH 8: 50 mM Na phosphate buffer. Prepare a 50 mM NaH2PO4 solution by dissolving 6.00 g NaH2PO4 in 1 L of H2O and a 50 mM Na2HPO4 solution by dissolving 7.10 g in 1 L of H2O. Mix 10 ml of the NaH2PO4 solution with 140 ml of the Na2HPO4 solution in a beaker. Adjust to pH 8.00 by addition of small amounts of 50 mM NaH2PO4 or Na2HPO4 solution. • pH 10: 50 mM Na carbonate buffer. Prepare a 50 mM carbonate solution by dissolving 840 mg of sodium bicarbonate (NaHCO3) in about 180 ml of H2O. Slowly adjust the pH to 10.0±0.1 by addition of 1N NaOH. Add water to reach the total volume of 200 ml and adjust to pH 10.00 with 1N NaOH.

[4] = 0.01N HCl Dark, Vis Stability (1.2 Mil lux-hours)
[5] = 0.01N HCl Dark, Vis-UV Stability (1.2 Mil lux-hours + 200 Watt-hours/m^2)
[6] = 0.01N HCl Light, Vis Stability (1.2 Mil lux-hours)
[7] = 0.01N HCl Light, Vis-UV Stability (1.2 Mil lux-hours + 200 Watt-hours/m^2)
[8] = 0.01N NaOH Dark, Vis Stability (1.2 Mil lux-hours)
[9] = 0.01N NaOH Dark, Vis-UV Stability (1.2 Mil lux-hours + 200 Watt-hours/m^2)
[10] = 0.01N NaOH Light, Vis Stability (1.2 Mil lux-hours), precipitation observed
[11] = 0.01N NaOH Light, Vis-UV Stability (1.2 Mil lux-hours + 200 Watt-hours/m^2), precipitation observed
[12] = H2O Dark, Vis Stability (1.2 Mil lux-hours)
[13] = H2O Dark, Vis-UV Stability (1.2 Mil lux-hours + 200 Watt-hours/m^2)
[14] = H2O Light, Vis Stability (1.2 Mil lux-hours)
[15] = H2O Light, Vis-UV Stability (1.2 Mil lux-hours + 200 Watt-hours/m^2)
[16] = 0.01N HCl, pH (initial) 2.0, RT, 24 h
[17] = 50 mM Na carbonate buffer, pH (initial) 10.0, RT, 24 h
[18] = 50 mM Na phosphate buffer, pH (initial) 8.0, RT, 24 h
[19] = 50 mM sodium citrate, pH (initial) 4.0, RT, 24 h
[20] = 50 mM sodium citrate, pH (initial) 6.0, RT, 24 h

CC(C)N(C[C@H]1O[C@@H](n2cnc3c(N)ncnc32)[C@H](O)[C@@H]1O)[C@H]1C[C@@H](CCc2nc3cc(C(C)(C)C)ccc3[nH]2)C1 [Form B, (2R,3R,4S,5R)-2-(6-amino-9H-purin-9-yl)-5-((((1r,3S)-3-(2-(5-(tert-butyl)-1H-benzo[d]imidazol-2-yl)ethyl)cyclobutyl)(isopropyl)amino)methyl)tetrahydrofuran-3,4-diol trihydrate]
Remaining Solid ([1]; Acetone): Form B
Remaining Solid ([1]; Acetonitrile): Form B
Remaining Solid ([1]; Ethanol): No solid obtained
Remaining Solid ([1]; Isopropanol): No solid obtained
solubility (in words) ([1]; MeOH, EtOH, and IPA): quite soluble
Remaining Solid ([1]; Methanol): No solid obtained
solubility at 24 h ([1]; Acetone): 23900 µg/mL
solubility at 24 h ([1]; Acetonitrile): 1500 µg/mL
solubility at 24 h ([1]; Ethanol): > 87000 µg/mL
solubility at 24 h ([1]; Isopropanol): > 129000 µg/mL
solubility at 24 h ([1]; Methanol): > 200000 µg/mL
water activity at which Form B is thermodynamically more stable than Form C [2]: ≥ 0.30
% area (Solution photostability; [4]): 99.4%
% claim (Solution photostability; [4]): 100.0%
Final pH (Solution photostability; [4]): 2.1
% area (Solution photostability; [5]): 99.9%
% claim (Solution photostability; [5]): 100.0%
Final pH (Solution photostability; [5]): 2.1
% area (Solution photostability; [6]): 98.5%
% claim (Solution photostability; [6]): 98.8%
Final pH (Solution photostability; [6]): 2.1
% area (Solution photostability; [7]): 99.9%
% claim (Solution photostability; [7]): 99.9%
Final pH (Solution photostability; [7]): 2.1
% area (Solution photostability; [8]): 99.7%
% claim (Solution photostability; [8]): 100.0%
Final pH (Solution photostability; [8]): 11.6
% area (Solution photostability; [9]): 100.0%
% claim (Solution photostability; [9]): 100.0%
Final pH (Solution photostability; [9]): 11.7
Final pH (Solution photostability; 0.01N NaOH Light, Vis Stability (1.2 Mil lux-hours)): 11.7
% area (Solution photostability; [10]): 99.6%
% claim (Solution photostability; [10]): 44.5%
Final pH (Solution photostability; 0.01N NaOH Light, Vis-UV Stability (1.2 Mil lux-hours + 200 Watt-hours/m^2)): 11.7
% area (Solution photostability; [11]): 99.3%
% claim (Solution photostability; [11]): 66.3%
% area (Solution photostability; [12]): 100.0%
% claim (Solution photostability; [12]): 100.0%
Final pH (Solution photostability; [12]): 7.7
% area (Solution photostability; [13]): 100.0%
% claim (Solution photostability; [13]): 100.0%
Final pH (Solution photostability; [13]): 8.1
% area (Solution photostability; [14]): 99.6%
% claim (Solution photostability; [14]): 98.5%
Final pH (Solution photostability; [14]): 7.3
% area (Solution photostability; [15]): 99.3%
% claim (Solution photostability; [15]): 94.7%
Final pH (Solution photostability; [15]): 7.3
observation in solution photostability study (Solution photostability; all solutions in 0.01N NaOH): Precipitation was observed
solution photostability (in words) (Solution photostability; in water and 0.01N HCl solution, UV/Vis exposure): stable upon exposure to UV/Vis
solubility at 24 h ([3]; 0.01N HCl solution, pH 2, simulated gastric fluid, 0.01N HCl, pH (initial) 2.0, RT, 24 h): 3400 µg/mL
pH (final) [3, 16]: 5.5
Remaining Solid [3, 16]: Form B
pH (final) [3, 17]: 10.0
Remaining Solid [3, 17]: Form B
Solubility ([3]; 50 mM Na carbonate buffer, pH (initial) 10.0, RT, 24 h, LOD 0.1 μg/ml): <LOD^
pH (final) [3, 18]: 8.0
Remaining Solid [3, 18]: Form B
Solubility ([3]; 50 mM Na phosphate buffer, pH (initial) 8.0, RT, 24 h, LOD 0.1 μg/ml): <LOD^§
solubility at 24 h ([3]; 50 mM sodium citrate buffer, pH 4, aqueous buffer, 50 mM sodium citrate, pH (initial) 4.0, RT, 24 h): 9800 µg/mL
solubility at 24 h ([3]; 50 mM sodium citrate buffer, pH 6, aqueous buffer, 50 mM sodium citrate, pH (initial) 6.0, RT, 24 h): 80 µg/mL
pH (final) [3, 19]: 5.4
Remaining Solid [3, 19]: Form B
Solubility ([3]; 50 mM sodium citrate, pH (initial) 4.0, RT, 24 h, trihydrate): 9700 µg/mL
pH (final) [3, 20]: 6.0
Remaining Solid [3, 20]: Form B
pH (final) ([3]; Water (unbuffered), RT, 24 h): 5.6
Remaining Solid ([3]; Water (unbuffered), RT, 24 h): Form B
solubility at 24 h ([3]; unbuffered water, water, RT): 1.2 µg/mL
solubility at 24 h ([3]; unbuffered water, water, Water (unbuffered), RT, 24 h): 1.2 µg/mL
